Data on 3 compounds can be found in article PMC7922932, “Molecular Dissection of Escherichia coli CpdB: Roles of the N Domain in Catalysis and Phosphate Inhibition, and of the C Domain in Substrate Specificity and Adenosine Inhibition” (International Journal of Molecular Sciences, 2021).

Usually IC50 stands for the midpoint of a concentration-inhibition curve. As a reminder, the Ki is the equilibrium dissociation constant of an inhibitor or competing ligand from its target.

Like-named read-outs stand apart in the source and are kept apart here.

Assay [1] addresses T1, CpdB_Ndom (Escherichia coli, UniProt P08331, D305N/I97V/M87I).
T1 construct: GST (N, cleaved yes); made in house; host or cells: E. coli BL21
The experiment in a line: biochemical. As to the method:
Substrate saturation experiments were run in the absence and the presence of one of these inhibitors at fixed concentrations (Figure 7).
(§1) Reaction mixtures of 100 µL contained, besides the needed amount of enzyme (i.e., 0.02–0.05 µg/mL of mature CpdB, 2 µg/mL of a CpdB point mutant, or 0.2 µg/mL of CpdB_Ndom), 50 mM Tris [Tris(hydroxymethyl)aminomethane]-HCl pH 7.5 (adjusted at 37 °C), 2 mM MnCl2, 0.1 mg/mL bovine serum albumin, and the indicated concentrations of bis-4-NPP and the compound tested as inhibitor. Incubations performed at 37 °C were stopped by addition of 0.5 mL of 200 mM Tris, pH 8.9, 5 mM EDTA (ethylenediaminetetraacetate), immediately followed by A405 measurement (ε = 18.1 mM^−1 cm^−1). This termination procedure was used instead of the addition of a high NaOH concentration, to avoid the known formation of brown precipitates of air-oxidized Mn^2+ hydroxide. On occasions, when a higher sensitivity was needed, reaction mixtures of 500 µL were implemented and termination was performed with 0.1 mL 1M Tris, pH 8.9, 30 mM EDTA.

The target of assay [2] is T2, His^117Ala-CpdB (H117A-CpdB) (Escherichia coli, UniProt P08331, D305N/H117A/I514V/I97V/M87I/N471D/S472N).
T2 construct: A structural model of mature CpdB (aa 20–647) was built; GST (N, cleaved yes); made in house; host or cells: E. coli BL21
T2 sequence (P08331 20-647 M87I/I97V/H117A/D305N/N471D/S472N/I514V): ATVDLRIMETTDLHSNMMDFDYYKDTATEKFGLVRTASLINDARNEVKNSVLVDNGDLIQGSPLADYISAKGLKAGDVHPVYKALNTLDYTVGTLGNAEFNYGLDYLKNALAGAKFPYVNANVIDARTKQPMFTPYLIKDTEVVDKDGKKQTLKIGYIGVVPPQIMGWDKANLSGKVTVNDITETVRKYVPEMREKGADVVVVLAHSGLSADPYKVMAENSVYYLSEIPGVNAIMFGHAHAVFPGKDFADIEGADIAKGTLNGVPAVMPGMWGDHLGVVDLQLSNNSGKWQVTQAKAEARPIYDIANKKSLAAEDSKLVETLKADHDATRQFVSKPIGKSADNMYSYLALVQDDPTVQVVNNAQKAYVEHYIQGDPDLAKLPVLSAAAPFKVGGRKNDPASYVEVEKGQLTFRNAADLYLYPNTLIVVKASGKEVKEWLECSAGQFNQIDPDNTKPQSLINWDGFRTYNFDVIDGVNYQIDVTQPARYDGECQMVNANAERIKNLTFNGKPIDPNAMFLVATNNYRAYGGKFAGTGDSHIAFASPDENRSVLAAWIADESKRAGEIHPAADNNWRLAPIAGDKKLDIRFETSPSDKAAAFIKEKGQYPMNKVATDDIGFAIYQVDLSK
The experiment in a line: biochemical. As to the method:
(§2) The two point mutants His^117Ala and Tyr^544Ala of mature CpdB were also tested for the inhibition of the hydrolysis of bis-4-NPP by adenosine.
as §1

For assay [3], the target named is T3, Tyr^544Ala-CpdB (Y544A-CpdB) (Escherichia coli, UniProt P08331, D305N/I514V/I97V/M87I/N471D/S472N/Y544A).
T3 construct: A structural model of mature CpdB (aa 20–647) was built; GST (N, cleaved yes); made in house; host or cells: E. coli BL21
T3 sequence (P08331 20-647 M87I/I97V/D305N/N471D/S472N/I514V/Y544A): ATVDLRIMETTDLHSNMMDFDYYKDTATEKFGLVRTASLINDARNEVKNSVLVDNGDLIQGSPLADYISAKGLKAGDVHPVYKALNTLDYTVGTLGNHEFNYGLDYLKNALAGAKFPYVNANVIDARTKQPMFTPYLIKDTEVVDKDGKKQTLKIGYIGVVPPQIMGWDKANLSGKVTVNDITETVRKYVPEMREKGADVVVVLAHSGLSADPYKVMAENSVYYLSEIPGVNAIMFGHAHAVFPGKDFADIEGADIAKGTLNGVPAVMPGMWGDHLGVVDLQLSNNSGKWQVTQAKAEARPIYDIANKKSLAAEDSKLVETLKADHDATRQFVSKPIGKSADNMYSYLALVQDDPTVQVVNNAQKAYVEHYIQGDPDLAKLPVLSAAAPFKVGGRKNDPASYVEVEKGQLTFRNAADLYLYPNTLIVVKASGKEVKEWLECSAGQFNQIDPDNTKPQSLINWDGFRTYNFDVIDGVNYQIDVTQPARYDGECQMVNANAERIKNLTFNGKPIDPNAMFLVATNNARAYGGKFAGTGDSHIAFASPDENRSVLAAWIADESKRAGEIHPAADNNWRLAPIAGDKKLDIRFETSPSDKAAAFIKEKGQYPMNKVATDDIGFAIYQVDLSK
The experiment in a line: biochemical. As for the experimental part: as §2, §1

For assay [4], the target named is T4, Mature CpdB (Escherichia coli, UniProt P08331). The experiment in a line: biochemical.
T4 sequence (P08331 20-647): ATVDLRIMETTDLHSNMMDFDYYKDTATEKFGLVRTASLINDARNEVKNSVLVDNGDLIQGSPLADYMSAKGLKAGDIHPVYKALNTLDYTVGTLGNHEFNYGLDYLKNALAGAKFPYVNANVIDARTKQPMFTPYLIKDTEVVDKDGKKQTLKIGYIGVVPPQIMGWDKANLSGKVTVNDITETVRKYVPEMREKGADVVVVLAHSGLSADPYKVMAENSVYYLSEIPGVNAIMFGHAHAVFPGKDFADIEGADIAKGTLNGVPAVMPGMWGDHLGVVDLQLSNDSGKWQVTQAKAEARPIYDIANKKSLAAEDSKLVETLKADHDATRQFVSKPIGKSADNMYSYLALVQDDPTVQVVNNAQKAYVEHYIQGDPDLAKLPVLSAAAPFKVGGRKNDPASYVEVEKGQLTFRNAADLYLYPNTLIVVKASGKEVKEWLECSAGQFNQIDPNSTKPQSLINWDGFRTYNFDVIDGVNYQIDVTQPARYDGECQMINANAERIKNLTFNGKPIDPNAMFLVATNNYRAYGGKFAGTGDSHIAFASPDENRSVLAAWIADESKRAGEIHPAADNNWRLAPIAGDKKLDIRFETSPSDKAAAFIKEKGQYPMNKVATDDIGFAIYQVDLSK
Text: In this approach, inhibitors were used as probes for the relevance of those enzyme sites, irrespective of the physiological character and concentrations of the compounds used.
(§4) The procedures and detailed conditions to measure the initial rates of phosphohydrolytic reactions were as earlier described [4]. […] The same assay was used with 2′,3′- or 3′,5′-cyclic nucleotides, CDP-choline and bis-4-NPP except that an excess of alkaline phosphatase was included in the reaction mixture as auxiliary enzyme.
The procedures followed to derive kinetic parameters kcat, KM and Ki from initial rate vs. substrate concentration datasets, either in the presence or the absence of inhibitor, were as described elsewhere [49]. Datasets obtained with different substrates in the absence of inhibitors were used to derive kcat and KM values by adjusting the Michaelis-Menten equation to the experimental points by non-linear regression. […] Each one of these equations was simultaneously adjusted (global fit) by nonlinear regression to the three saturation curves of each inhibition experiment, using the Solver function of Microsoft Excel. During the adjustments, Vmax, KM and Ki were left to fluctuate. […] In each set of experiments, the type of inhibition that gave the best fit was used as the model to estimate Ki values.
The target in assay [5] is T4, Mature CpdB. The experiment in a line: biochemical. The class given is biochemical. The arrangement: A structural model of mature CpdB (aa 20–647) was built; GST (N, cleaved yes); made in house; host or cells: E. coli BL21. As to the method: as §1
The target in assay [6] is T1, CpdB_Ndom. The class given is biochemical. Conditions: CpdB_Ndom; 750 µM bis-4-NPP as the substrate; single illustrative experiments.
The target in assay [7] is CpdB_Ndom. The class given is biochemical, Escherichia coli. Conditions: CpdB_Ndom versus CpdB; bis-4-NPP as substrate.
For assay [8], the target named is T5, CpdB_Ndom (N-terminal domain of CpdB) (Escherichia coli, UniProt P08331, D305N/I97V/M87I).
T5 construct: GST (N, cleaved yes); made in house; host or cells: E. coli BL21
T5 sequence (P08331 20-354 M87I/I97V/D305N): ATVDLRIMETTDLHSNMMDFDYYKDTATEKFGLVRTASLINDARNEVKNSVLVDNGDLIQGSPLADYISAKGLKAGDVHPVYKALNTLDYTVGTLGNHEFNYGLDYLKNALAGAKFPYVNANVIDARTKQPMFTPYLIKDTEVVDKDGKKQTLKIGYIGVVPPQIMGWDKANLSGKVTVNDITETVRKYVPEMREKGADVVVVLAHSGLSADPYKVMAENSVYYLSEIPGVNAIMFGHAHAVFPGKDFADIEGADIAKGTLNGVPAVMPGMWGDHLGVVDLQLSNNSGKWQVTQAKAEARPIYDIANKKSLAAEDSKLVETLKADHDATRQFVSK
The class given is biochemical. Conditions: CpdB_Ndom; substance is the substrate; mean ± SD of three experiments.
Experimental: With all the detectably hydrolyzed substrates, saturation kinetics was studied and parameters kcat and KM were determined from Michaelis-Menten plots (Table 1).
The same assay was used with 2′,3′- or 3′,5′-cyclic nucleotides, CDP-choline and bis-4-NPP except that an excess of alkaline phosphatase was included in the reaction mixture as auxiliary enzyme.
Datasets obtained with different substrates in the absence of inhibitors were used to derive kcat and KM values by adjusting the Michaelis-Menten equation to the experimental points by non-linear regression.

The target of assay [9] is T6, His^117Ala-CpdB (Escherichia coli, UniProt P08331, D305N/H117A/I514V/I97V/M87I/N471D/S472N).
T6 construct: A structural model of mature CpdB (aa 20–647) was built; GST (N, cleaved yes); made in house; host or cells: E. coli BL21
T6 sequence (P08331 20-647 M87I/I97V/H117A/D305N/N471D/S472N/I514V): as the sequence (P08331 20-647 M87I/I97V/H117A/D305N/N471D/S472N/I514V) above
The class given is biochemical. The source says: (§3) The role of the possible catalytic and substrate-binding sites was additionally tested by the preparation of two point mutants of the mature CpdB protein. On the one hand, the mutation His^117Ala modified the histidine residue conserved in the N domain (Figure 1b) with respect to UshA, where it has been proposed to be part of the catalytic core structure and to act as a general base that facilitates the nucleophilic attack by deprotonating a water molecule, and to participate in the stabilization of the transition state. […] On the other hand, mutation Tyr^544Ala modified one of the aromatic residues of CpdB which are conserved in the C domain with respect to the UshA phenylalanine residues that form a stacked sandwich with the adenine ring of the substrate.

The target of assay [10] is T7, Tyr^544Ala-CpdB (Escherichia coli, UniProt P08331, D305N/I514V/I97V/M87I/N471D/S472N/Y544A).
T7 construct: A structural model of mature CpdB (aa 20–647) was built; GST (N, cleaved yes); made in house; host or cells: E. coli BL21
T7 sequence (P08331 20-647 M87I/I97V/D305N/N471D/S472N/I514V/Y544A): as the sequence (P08331 20-647 M87I/I97V/D305N/N471D/S472N/I514V/Y544A) above
The class given is biochemical. Conditions: Tyr^544Ala-CpdB; substance is the substrate.
Text: as §3

Assay [11] has as its system Tyr^544Ala-CpdB. The class given is biochemical, Escherichia coli. Conditions: Tyr^544Ala-CpdB versus wild-type mature CpdB.
Text: as §3

The target of assay [12] is T1, CpdB_Ndom. The experiment in a line: Products of the hydrolysis of cyclic (di)nucleotides by CpdB_Ndom (HPLC). Conditions: 2′,3′-cAMP at 500 µM. The class given is biochemical.
Text: as §4
The target of assay [13] is T4, Mature CpdB. The arrangement: A structural model of mature CpdB (aa 20–647) was built; GST (N, cleaved yes); made in house; host or cells: E. coli BL21. Conditions: substance is the substrate; cited from earlier work.
Setting [14] is: CpdB_Ndom, substrate bis-4-NPP, global fit, complete competitive inhibition (Figure 7), read-out: Inhibition constant (Ki).
Where [15] appears, read: mature CpdB, 750 µM bis-4-NPP as the substrate, single illustrative experiments, read-out: IC50.
[16] abbreviates: mature CpdB, substrate bis-4-NPP, global fit, mixed partial inhibition (Figure 5), values without SD are single experiments, read-out: Inhibition constant (Ki).
Where [17] appears, read: His^117Ala-CpdB, substance is the substrate.

T1 sequence (P08331 20-354 M87I/I97V/D305N): as the sequence (P08331 20-354 M87I/I97V/D305N) above

For `Nc1ncnc2c1ncn2[C@@H]1O[C@H](CO)[C@@H](O)[C@H]1O` [Adenosine, adenosine], the IC50 was above 10000 µM in assay [1]; 2000 µM in assay [2]; around 30000 µM in assay [3]; 3250 µM in [4]; 870 µM in assay [5]. For the same compound, the Ki in [1] was determined as 48000 µM; in assay [4], 41 ± 17 µM; in assay [5] it was 160 µM.

On to phosphate, for which the figures for the Ki in assay [1] (setting [14]) and in assay [5] (setting [16]) were 1060 ± 210 µM and 1380 ± 340 µM, respectively. The IC50 in assay [6] came to 1700 µM; in assay [5] (setting [15]), 9000 µM. Further, the “Ki increase in the absence of the C-terminal domain” value in assay [7] is given as “did not change”.

For `Nc1ncnc2c1ncn2[C@@H]1O[C@H](CO)[C@H]2OP(=O)(O)O[C@H]21` [2′,3′-cAMP], the “K M” value in assay [8] is given as 390 ± 170 µM; in assay [9] (setting [17]) it was 126 ± 7 µM; in assay [10], 1600 ± 550 µM; in assay [13], 27 µM. The k cat is 73 ± 32 s⁻¹ in assay [8], 0.18 ± 0.02 s⁻¹ in assay [9] (setting [17]), 190 ± 60 s⁻¹ in assay [10] and 190 s⁻¹ in [13]. Further, the figures for the “k cat /K M” value in assay [8], in assay [9] (setting [17]) and in [10] were 190,000 ± 13,000 M^−1 s^−1, 1500 ± 230 M⁻¹ s⁻¹ and 140,000 ± 73,000 M^−1 s^−1, respectively. Besides, the “Catalytic efficiency (kcat/KM) lower than wild-type mature CpdB” value in [9] (His^117Ala-CpdB versus wild-type mature CpdB, same substrate) was 5000 fold. Besides, the “KM increase by the Tyr^544Ala mutation” value in [11] is given as 60 fold. The Ki in [1] (setting [14]) was 460 ± 50 µM; in [5] (setting [16]), 5 ± 0.4 µM. The “2′-AMP as product of hydrolysis” value in [12] was 15%. Besides, the “3′-AMP as product of hydrolysis” value in assay [12] is 85%. Further, the IC50 in assay [6] was determined as 840 µM; in [5] (setting [15]), 56 µM. For the same compound, in [13], the “k cat /K M (catalytic efficiency)” value is 7,300,000 M^−1 s^−1.
